What was measured:
[1] = tested on: human dermal lymphatic endothelial cells (hdLECs); test: qRT-PCR of valve and flow responsive gene mRNA in cultured hdLECs; assay type: cell-based
Protocol: FIG. 1. AS1842856 (AS) has a time and concentration dependent effect on valve genes expression. Human dermal lymphatic endothelial cells (hdLECs) were cultured under static conditions and treated for the indicated time (24, 48, and 72 hours) and concentrations from left to right: DMSO 1 μM, AS 0.1 μM, AS 0.5 μM, and AS 1 μM. Afterwards, mRNA of indicated genes was extracted, reverse transcribe and quantified by qRT-PCR analysis. All values are mean±SEM. n=3 experiment repeats; ns=not significant; *p≤0.05, **p≤0.01.
To investigate this, hdLECs were treated with three distinct concentrations of AS1842856-0.1 μM, 0.5 μM, and 1 μM for 24 hours (hrs), 48 hrs, and 72 hrs. DMSO was used as the vehicle control. The medium was changed every day with freshly made drug. Thereafter, the expression levels of valve genes and flow responsive genes, including FOXC2, GATA2, PROX1, KLF4, ITGA9, GJA4, NOS3, and CTNNB1, were determined using quantitative RT-qPCR. […] Deletion of any of these three genes leads to the absence of lymphatic valve formation during embryonic development (Petrova et al., 2004, Kazenwadel et al., 2015, Cha et al., 2016). […] However, the expression of CTNNB1 was not altered.
Human dermal lymphatic endothelial cells (hdLECs) purchased from Promocell (C-12216) were cultured in EBM-V2 (PromoCell, C-22121) media on fibronectin (20 μl/well) coated 6-well plates. hdLECs were treated with 4 different conditions: DMSO (1 μM), AS1842856 (EMD Millipore Corporation) 0.1 μM, 0.5 μM and 1 μM for 3 different time points: 24, 48, and 72 hours for qRT-PCR. For western blot, hdLECs were treated with 0.5 μM AS1842856 for 48 hours.
The RNeasy Plus Mini Kit (Qiagen) was used to isolate total RNA from hdLECs per the manufacturers' instructions. cDNA synthesis was performed using the AdvantageR RT-for-PCR kit (Takara) according to the manufacturer's guidelines. qPCR was performed in a QuantStudio 6 realtime PCR system (Applied Biosystems) with TaqmanR probes (Applied Biosystems, Thermofisher) and the Cq value of each gene was normalized to the that of GAPDH.

Foxc2^+/CreERT2 mice = test: Whole-mount immunostaining of mesenteric collecting lymphatic vessels after injection; assay type: in vivo, mouse
Description: FIG. 4. AS1842856 injection promotes b-catenin nuclear localization in vivo. Panels A-P′ show whole-mount immunostaining of P10 mesenteric collecting lymphatic vessels from wildtype and Foxc2^+/CreERT2 pups with vehicle control (DMSO) or AS1842856 injection. Prox1 in green, Ctnnb1 in purple, and VE-cadherin in gray. A′-P′ are the higher magnification images of the white box areas in A-P. Scale bars are 100 μm.
Foxc2 is a chief regulator of lymphatic valve development modulating the expression of many valve genes (Sabine et al., 2015). While Foxc2 null animals are embryonic lethal, the Foxc2 heterozygous mice are a model of the human disease lymphedema-distichiasis with severe lymphatic valve loss (Kriederman et al., 2003, Petrova et al., 2004). To test whether AS1842856 treatment increases valve growth in vivo, the inventors intraperitoneally (i.p.) injected AS1842856 into Foxc2^+/CreERT2 pups. […] Since the open reading frame in one allele of the Foxc2 gene is replaced with the cDNA for CreERT2, the Foxc2^+/CreERT2 mice is heterozygous for Foxc2 gene (Geng et al., 2016). […] To compare the number of valves from these 4 groups, the inventors counted total number of valves from 6 branches (from the lymph nodes to the gut wall) in the mesentery and measured the total length of these branches as previously published (Scallan et al., 2021). […]

[2] = Nagashima et al., 2010; cited from earlier work

For `CCn1cc(C(=O)O)c(=O)c2c(N)c(F)c(NC3CCCCC3)cc21` [AS1842856], the “increased expression of FOXC2, GATA2, KLF4, ITGA9, GJA4, NOS3, and PROX1 (comparison of treatment conditions)” value ([1]; 0.5 μM for 48 hrs) was “best results”, the “GATA2 mRNA expression level” value ([1]; 24 hrs or 72 hrs AS treatment vs DMSO) was “not with 24 hrs or 72 hrs treatment” and the “CTNNB1 mRNA expression” value ([1]; 48 hrs AS treatment vs DMSO) was “not altered”. The “FOXC2 mRNA expression level” value ([1]; 48 hrs AS treatment vs DMSO) was “significantly upregulated”, the “GATA2 mRNA expression level” value ([1]; 48 hrs AS treatment vs DMSO) was “significantly upregulated” and the “GJA4 mRNA expression level” value ([1]; 48 hrs AS treatment vs DMSO) was “significantly higher”. The “ITGA9 mRNA expression level” value ([1]; 48 hrs AS treatment vs DMSO) was “significantly higher”, the “KLF4 mRNA expression level” value ([1]; 48 hrs AS treatment vs DMSO) was “significantly increased” and the “NOS3 mRNA expression” value ([1]; 48 hrs AS treatment vs DMSO) was “significantly increased”. The “PROX1 mRNA expression level” value ([1]; 48 hrs AS treatment vs DMSO) was “significantly increased”, the “FOXC2 mRNA expression level” value ([1]; 48 hrs, 0.1 μM) was “trend of increase” and the “GATA2 mRNA expression level” value ([1]; 48 hrs, 0.1 μM) was “trend of increase”. For the same molecule, the “GJA4 mRNA expression level” value ([1]; 48 hrs, 0.1 μM and 0.5 μM) was “upregulated”, the “ITGA9 mRNA expression level” value ([1]; 48 hrs, 0.1 μM and 0.5 μM) was “upregulated” and the “NOS3 mRNA expression level” value ([1]; 48 hrs, 0.1 μM and 0.5 μM) was “upregulated”. For the same molecule, the “PROX1 mRNA expression level” value ([1]; 48 hrs, 0.1 μM and 0.5 μM) was “upregulated”, the “FOXC2 mRNA expression” value ([1]; 48 hrs, 0.5 μM and 1 μM) was “significant increase” and the “GATA2 mRNA expression” value ([1]; 48 hrs, 0.5 μM and 1 μM) was “significant increase”. The “GJA4 mRNA expression level” value ([1]; 48 hrs, 1 μM) was “not under 1 μM”, the “ITGA9 mRNA expression level” value ([1]; 48 hrs, 1 μM) was “not under 1 μM” and the “NOS3 mRNA expression level” value ([1]; 48 hrs, 1 μM) was “not under 1 μM”. For the same molecule, the “PROX1 mRNA expression level” value ([1]; 48 hrs, 1 μM) was “not under 1 μM”, the “CTNNB1 mRNA expression” value ([1]; 48 hrs, 0.1, 0.5 and 1 μM) was “None of the concentrations induced significant upregulation” and the “FOXO1 mRNA expression” value ([1]; 48 hrs, 0.1, 0.5 and 1 μM) was “None of the concentrations induced significant upregulation”. The “KLF4 mRNA expression” value ([1]; 48 hrs, all three concentrations (0.1, 0.5, 1 μM)) was “increased”, the “FOXO1 mRNA expression level” value ([1]; AS treatment vs DMSO) was “not altered” and the “valves expressing Itga9 (whole-mount immunostaining)” value (Foxc2^+/CreERT2 mice; AS1842856 treated Foxc2^+/CreERT2 pups) was “all the valves”. The “nuclear localization of β-catenin in mesenteric LECs in vivo” value (Foxc2^+/CreERT2 mice; P10 mesenteries after two injections, wildtype and Foxc2^+/CreERT2 pups, vs DMSO injected group) was “increased nuclear purple staining from β-catenin” and the cell permeability [2] was “cell permeable”.

Reference: patent publication US20250009734A1, “METHODS OF INHIBITING FOXO1 FOR TREATMENT OF LYMPHATIC DISORDERS” (UNIVERSITY OF SOUTH FLORIDA, priority 2023, published 2025)
